Measurements taken from patent EP2794556B1, “BIS-(ARYL/HETEROARYL)-METHYLENE COMPOUNDS, PHARMACEUTICAL COMPOSITIONS CONTAINING SAME AND THEIR USE FOR TREATING CANCER” (Gleason, James L., priority 2011, dated 2013).
One block for each compound: values may come before it.

Experiments:
HDAC6 = target: T1, HDAC6 (Homo sapiens, UniProt Q9UBN7); assay: Fluorogenic HDAC inhibition assay, purified enzyme
T1 sequence (Q9UBN7 1-1215): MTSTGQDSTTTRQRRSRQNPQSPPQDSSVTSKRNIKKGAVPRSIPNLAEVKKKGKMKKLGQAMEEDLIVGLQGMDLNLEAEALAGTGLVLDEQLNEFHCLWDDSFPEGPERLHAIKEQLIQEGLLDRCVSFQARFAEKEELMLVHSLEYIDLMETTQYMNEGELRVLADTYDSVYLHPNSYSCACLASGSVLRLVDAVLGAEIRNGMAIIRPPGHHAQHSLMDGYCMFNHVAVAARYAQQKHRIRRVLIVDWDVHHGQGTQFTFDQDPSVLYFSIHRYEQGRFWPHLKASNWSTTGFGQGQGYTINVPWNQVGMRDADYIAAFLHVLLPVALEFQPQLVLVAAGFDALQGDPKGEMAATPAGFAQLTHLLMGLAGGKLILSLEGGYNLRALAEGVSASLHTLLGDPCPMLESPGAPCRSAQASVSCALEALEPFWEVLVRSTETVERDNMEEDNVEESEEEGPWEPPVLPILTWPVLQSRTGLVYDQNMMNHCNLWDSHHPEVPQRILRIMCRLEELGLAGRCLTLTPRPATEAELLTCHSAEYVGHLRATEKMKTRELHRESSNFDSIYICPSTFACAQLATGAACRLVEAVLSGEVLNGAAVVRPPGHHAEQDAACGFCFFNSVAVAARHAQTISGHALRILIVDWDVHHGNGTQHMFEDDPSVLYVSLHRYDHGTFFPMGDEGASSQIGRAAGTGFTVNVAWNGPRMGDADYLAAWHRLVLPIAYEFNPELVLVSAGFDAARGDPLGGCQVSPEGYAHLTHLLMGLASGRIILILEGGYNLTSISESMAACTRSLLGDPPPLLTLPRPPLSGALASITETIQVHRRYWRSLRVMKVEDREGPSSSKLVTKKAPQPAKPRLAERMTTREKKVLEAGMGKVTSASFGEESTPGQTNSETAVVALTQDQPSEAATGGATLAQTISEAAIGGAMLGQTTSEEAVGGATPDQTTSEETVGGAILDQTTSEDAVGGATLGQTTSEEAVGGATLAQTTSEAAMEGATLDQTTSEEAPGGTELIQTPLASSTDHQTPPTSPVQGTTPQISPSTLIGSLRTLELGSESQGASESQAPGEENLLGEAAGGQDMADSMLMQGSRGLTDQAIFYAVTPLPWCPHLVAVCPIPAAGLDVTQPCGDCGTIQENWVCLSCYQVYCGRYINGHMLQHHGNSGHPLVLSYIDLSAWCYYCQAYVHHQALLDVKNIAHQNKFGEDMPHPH
Description: (§1) Fluorogenic HDAC inhibition assay. Boc-Lys(Ac)-7-amino-4-methylcoumarin (Boc-Lys(Ac)-AMC) was used as substrate for the HDAC assays. […] Trypsin was used to stop the reaction, releasing free AMC. The trypsin solution was prepared as follow: trypsin was dissolved in HDAC buffer to give a concentration of 10 mg/mL. Release of AMC was monitored by measuring the fluorescence at 460 nm (lex = 390 nm) with a microplate reader (SpectraMax Gemini) at 37 °C. The AMC signals were recorded against a blank with buffer, substrate and trypsin but without the enzyme. All experiments were carried out at least in triplicate.
(§2) For standard HDAC assays, 50 µL of HDAC buffer was mixed with 10 µL of diluted enzyme solution in HDAC buffer at room temperature. The HDAC reaction was started by adding 40 µL of substrate solution in HDAC buffer followed by 30 min of incubation with stirring at 37 °C. The reaction was stopped by adding 100 µL of trypsin solution. After a 10 min incubation with stirring at 37 °C, the release of AMC was monitored by measuring the fluorescence. For HDAC inhibition assays, inhibitor diluted in 50 µL of HDAC buffer was mixed with 10 µL of diluted enzyme solution in HDAC buffer at room temperature. The HDAC reaction was started by adding 40 µL of substrate solution in HDAC buffer followed by 30 min of incubation with stirring at 37 °C. The reaction was stopped by adding 100 µL of trypsin solution. After a 10 min incubation with stirring at 37 °C, the release of AMC was monitored by measuring the fluorescence.

VDR = target: T2, VDR (Homo sapiens, UniProt P11473); assay: VDR agonism by induction of CYP24 gene expression (RT/PCR); type: cell-based; conditions: SCC25 cells; for VDR agonism by induction of CYP24 gene expression: screen at 10 µM, Fig. 1a
T2 construct: endogenous in cells; host or cells: SCC25 human head and neck squamous carcinoma cells
T2 sequence (P11473 1-427): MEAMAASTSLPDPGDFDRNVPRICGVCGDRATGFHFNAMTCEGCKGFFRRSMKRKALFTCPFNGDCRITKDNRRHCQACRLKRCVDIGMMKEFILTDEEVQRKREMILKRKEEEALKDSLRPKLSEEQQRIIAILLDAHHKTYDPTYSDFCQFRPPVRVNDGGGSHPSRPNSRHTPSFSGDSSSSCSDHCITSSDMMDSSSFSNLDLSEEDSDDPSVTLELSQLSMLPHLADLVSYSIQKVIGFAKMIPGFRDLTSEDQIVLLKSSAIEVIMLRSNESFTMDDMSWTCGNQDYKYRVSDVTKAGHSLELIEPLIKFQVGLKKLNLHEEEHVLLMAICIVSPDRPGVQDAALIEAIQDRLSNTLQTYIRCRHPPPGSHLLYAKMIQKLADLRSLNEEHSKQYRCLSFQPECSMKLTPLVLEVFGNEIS
Description: Cell culture. Human head and neck squamous carcinoma cell lines SCC4 and SCC45 and mouse HNSCC line AT84 were purchased from American Type Culture Collection (Manassas, VA) and cultured under recommended conditions. Cells were split at 60-70% confluence, as follows: cells were washed with filtered PBS, split with a 5-10 min incubation with 1 ml Trypsin-EDTA (Invitrogen, Carlsbad, CA) in PBS, collected with medium. Following centrifugation, the supernatant was removed. Cell pellets were resuspended with DMEM-F12, and distributed on fresh media-containing dishes. For treatments, AT84 cells were split and 24h later medium was changed to DMEM + 10% charcoal-stripped FBS.
RNA isolation and RT/PCR analysis. […]. Proc. Nat. Acad. Sci. U.S.A. 105, 8250-55. and Lamblin, M.et al Bioorganic & Medicinal Chemistry (2010) 18:4119-4137. After treatment, cells were washed with PBS, homogenized with 1ml TRIzol Reagent (Invitrogen, Carlsbad, CA), kept at room temperature for 2-5 min, collected and kept at -80 °C for at least 1h. After, thawing 0.2 ml chloroform was added. After vigorous mixing and storing for 10min, mixtures were centrifuged (10,000rpm, 15 min, 4 °C) and the upper transparent layer was transferred to a new tube. 0.5 ml isopropanol was added and the new solution was mixed. After centrifuging at 4 °C, the supernatant was discarded and 1ml of 75% ethanol was added. After centrifuging and discarding the supernatant, the pellet was air-dried for 5-10 min, and then dissolved in ddH2O. RNA concentrations were measured using a spectrophotometer, and 1-3µg of RNA were loaded for reverse transcriptase reactions (total volume: 20 µl). 80µl of ddH2O was added to the RT-product, and 1.5µl of that was used as template for the PCR reaction. Reverse transcriptase (Super Script II) was purchased from Invitrogen (Carlsbad, CA). DNA polymerase and dNTP's were ordered from Fermentas (Glen Burnie, MD).
Test compounds (10 µM) were first screened for VDR agonism by analysis of induction of CYP24 gene expression in 1,25D-sensitive human SCC25 cells. […]. Consistent with binding to the VDR, induction of CYP24 by compound JF-B01, compound JF-B53 or compound 16 (JF-B54) was blocked (Fig. 1c). […]

HDAC3 = HDAC3 (Homo sapiens, UniProt O15379); assay: Fluorogenic HDAC inhibition assay, purified enzyme
Chain of HDAC3 (O15379 whole entry, species assumed): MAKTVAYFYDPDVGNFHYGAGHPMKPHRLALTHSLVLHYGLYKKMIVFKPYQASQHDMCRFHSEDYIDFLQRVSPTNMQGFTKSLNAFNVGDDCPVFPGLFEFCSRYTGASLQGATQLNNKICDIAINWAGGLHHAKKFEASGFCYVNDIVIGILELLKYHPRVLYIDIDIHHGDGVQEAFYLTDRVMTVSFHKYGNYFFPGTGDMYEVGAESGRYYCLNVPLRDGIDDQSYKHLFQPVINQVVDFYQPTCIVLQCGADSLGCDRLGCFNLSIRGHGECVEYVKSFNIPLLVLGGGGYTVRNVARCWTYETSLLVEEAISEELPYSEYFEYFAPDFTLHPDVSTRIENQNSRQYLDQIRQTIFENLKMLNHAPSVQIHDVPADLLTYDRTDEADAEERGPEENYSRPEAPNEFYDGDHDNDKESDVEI
Chain of HDAC3 (Q9Y618 395-489 partner limits assumed, species assumed): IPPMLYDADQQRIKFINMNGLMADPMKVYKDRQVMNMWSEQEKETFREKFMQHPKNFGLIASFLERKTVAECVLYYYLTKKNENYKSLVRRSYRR
Description: as §1, §2

SCC4 cells [1] = assay: MTS cell proliferation assay; type: cell-based, human; conditions: vitamin D resistant SCC4 cells, Figures 7c, 8 and 9
From the text: Dose-dependent effects of compounds on cell cycle progression was monitored using a CellTiter 96 Aqueous Non-Radioactive Cell Proliferation Assay Kit (Promega). The assay composed of solutions of a novel tetrazolium compound (MTS) and an electron coupling reagent (phenazine methosulfate; PMS). MTS is reduced by metabolically active cells into a soluble formazan product that absorbs at 490nm. The quantity of formazan product absorbing at 490nm is directly proportional to the number of living cells.

SCC4 cells [2] = assay: EdU cell growth assay; conditions: 1,25D-resistant SCC4 cells, Fig. 2e, f
Description: EdU cell growth assay. Click-iT EdU Alexa Fluor high-throughput imaging (HCS) assay for cell proliferation. HCS assays were performed on AT84 mouse squamous carcinoma cell line (ATCC) following the manufacturer's instruction (Molecular Probes, Invitrogen). […] All samples were in triplicate.

Compound: CCC(CC)(c1ccc(OCC(O)CCC(=O)NO)c(C)c1)c1ccc(OCC(O)C(C)(C)C)c(C)c1 (stereo not drawn) [DK-305, N,4-dihydroxy-5-(4-(3-(4-(2-hydroxy-3,3-dimethylbutoxy)-3-methylphenyl)pentan-3-yl)-2-methylphenoxy)pentanamide]
IC50 (HDAC6): 29.2 µM

Compound: CCC(CC)(c1ccc(OCC(=O)NO)c(C)c1)c1ccc(OCC(=O)C(C)(C)C)c(C)c1 [JF-B59, 2-(4-(3-(4-(3,3-dimethyl-2-oxobutoxy)-3-methylphenyl)pentan-3-yl)-2-methylphenoxy)-N-hydroxyacetamide]
VDR agonist potency, fold lower compared to JF-B01 (VDR; Fig. 1b): > 10 fold

IC50 (HDAC3): 30.5 µM
Compound: CCC(CC)(c1ccc(OCC(=O)NO)c(C)c1)c1cc(C)c(CCC(O)C(C)(C)C)s1 (stereo not drawn) [DK-201, N-hydroxy-2-(4-(3-(5-(3-hydroxy-4,4-dimethylpentyl)-4-methylthiophen-2-yl)pentan-3-yl)-2-methylphenoxy)acetamide]

VDR agonism by induction of CYP24 gene expression (VDR): completely inactive
Compound: CCC(CC)(c1ccc(OCC(=O)NO)c(C)c1)c1ccc(OCC(O)CO)c(C)c1 (stereo not drawn) [JF-B40]

Compound: CCC(CC)(c1ccc(OCCCCCC(=O)NO)c(C)c1)c1ccc(OCC(O)C(C)(C)C)c(C)c1 (stereo not drawn) [DK-319, N-hydroxy-6-(4-(3-(4-(2-hydroxy-3,3-dimethylbutoxy)-3-methylphenyl)pentan-3-yl)-2-methylphenoxy)hexanamide]
IC50 (HDAC6): 2.65 µM

IC50 (HDAC6): 47.1 µM | IC50 (HDAC3): 9.83 µM
Compound: CCC(CC)(c1ccc(OCCCC(=O)NO)c(C)c1)c1ccc(OC[C@H](O)C(C)(C)C)c(C)c1 [JFD-15]
antiproliferative potency (SCC4 cells [1]): low micromolar potency

Compound: CCC(CC)(c1ccc(C(=O)NCCCCCC(=O)NO)cc1)c1ccc(OCC(O)C(C)(C)C)c(C)c1 (stereo not drawn) [DK-406, 4-(3-(4-(2-hydroxy-3,3-dimethylbutoxy)-3-methylphenyl)pentan-3-yl)-N-(6-(hydroxyamino)-6-oxohexyl)benzamide]
IC50 (HDAC6): 0.557 µM

Compound: CCC(CC)(c1ccc(OCC(O)C(C)(C)C)c(C)c1)c1ccc(C(=O)NCCCCCC(=O)NO)c(C)c1 (stereo not drawn) [DK-361, 4-(3-(4-(2-hydroxy-3,3-dimethylbutoxy)-3-methylphenyl)pentan-3-yl)-N-(6-(hydroxyamino)-6-oxohexyl)-2-methylbenzamide]
IC50 (HDAC6): 3.4 µM

VDR agonism by induction of CYP24 gene expression (VDR): completely inactive
Compound: CCC(CC)(c1ccc(OCCO)c(C)c1)c1ccc(OCC(=O)NO)c(C)c1 [JF-B52, N-Hydroxy-2-(4-(3-(4-(2-hydroxvethoxy)-3-methylphenyl)pentan-3-yl)-2-methylphenoxy)acetamide]

Compound: CCC(CC)(c1ccc(OCCCCCC(=O)NO)cc1)c1ccc(OCC(O)C(C)(C)C)c(C)c1 (stereo not drawn) [DK-367, N-hydroxy-6-(4-(3-(4-(2-hydroxy-3,3-dimethylbutoxy)-3-methylphenyl)pentan-3-yl)phenoxy)hexanamide]
IC50 (HDAC6): 1.57 µM | antiproliferative potency (SCC4 cells [1]): low micromolar potency

VDR agonist activity and potency, induction of CYP24 gene expression (VDR; Fig. 1b, 1d): some agonist activity
Compound: CCC(CC)(c1ccc(OCC(=O)O)c(C)c1)c1ccc(OCC(=O)C(C)(C)C)c(C)c1 [JF-C11]
inhibition of proliferation, EdU incorporation (SCC4 cells [2]): failed to block SCC4 proliferation

Compound: CCC(CC)(c1ccc(OCCCCC(=O)NO)c(C)c1)c1ccc(OCC(O)C(C)(C)C)c(C)c1 (stereo not drawn) [DK-320, N-hydroxy-5-(4-(3-(4-(2-hydroxy-3,3-dimethylbutoxy)-3-methylphenyl)pentan-3-yl)-2-methylphenoxy)pentanamide]
IC50 (HDAC6): 5.03 µM

IC50 (HDAC6): 36.1 µM | IC50 (HDAC3): 45.1 µM
Compound: CCC(CC)(c1ccc(CCC(=O)NO)c(C)c1)c1ccc(OC[C@H](O)C(C)(C)C)c(C)c1 [JFD-50]
antiproliferative potency (SCC4 cells [1]): low micromolar potency

Compound: CCC(CC)(c1ccc(OCCCCCCC(=O)NO)c(C)c1)c1ccc(OCC(O)C(C)(C)C)c(C)c1 (stereo not drawn) [DK-347, N-hydroxy-7-(4-(3-(4-(2-hydroxy-3,3-dimethylbutoxy)-3-methylphenyl)pentan-3-yl)-2-methylphenoxy)heptanamide]
IC50 (HDAC6): 3.94 µM

Compound: CCC(CC)(c1ccc(OCC(O)C(C)(C)C)c(C)c1)c1cn(C)c2cc(CCC(=O)NO)ccc12 (stereo not drawn) [DK-234, N-hydroxy-3-(3-(3-(4-(2-hydroxy-3.3-dimethylbutoxy)-3-methylphenyl)pentan-3-yl)-1-methyl-1H-indol-6-yl)propanamide]
antiproliferative potency (SCC4 cells [1]): low micromolar potency

Compound: CCC(CC)(c1ccc(OCCCCC(=O)NO)cc1)c1ccc(OCCC(C)(C)C)c(C)c1 [DK-405, 5-(4-(3-(4-(3,3-dimethylbutoxy)-3-methylphenyl)pentan-3-yl)phenoxy)-N-hydroxypentanamide]
IC50 (HDAC6): 1.97 µM

Compound: CCC(CC)(c1ccc(OCCCCC(=O)NO)cc1)c1ccc(OCC(O)C(C)(C)C)c(C)c1 (stereo not drawn) [DK-381, N-hydroxy-5-(4-(3-(4-(2-hydroxy-3,3-dimethylbutoxy)-3-methylphenyl)pentan-3-yl)phenoxy)pentanamide]
IC50 (HDAC6): 3.13 µM

Compound: CCC(CC)(c1ccc(OCC(O)C(C)(C)C)c(C)c1)c1cc(C)c(CCC(=O)NO)s1 (stereo not drawn) [DK-178, N-hydroxy-3-(5-(3-(4-(2-hydroxy-3,3-dimethylbutoxy)-3-methylphenyl)pentan-3-yl)-3-methylthiophen-2-yl)propanamide]
IC50 (HDAC6): 24.9 µM | antiproliferative potency (SCC4 cells [1]): low micromolar potency | IC50 (HDAC3): 47.3 µM

Compound: CCC(CC)(c1ccc(OCC(O)C(C)(C)C)c(C)c1)c1ccc(C(=O)NCCCCCCC(=O)NO)c(C)c1 (stereo not drawn) [DK-362, 4-(3-(4-(2-hydroxy-3,3-dimethylbutoxy)-3-methylphenyl)pentan-3-yl)-N-(7-(hydroxyamino)-7-oxoheptyl)-2-methylbenzamide]
IC50 (HDAC6): 1.08 µM
